# According to the NIST ThermoML archive (doi:10.1016/j.jct.2015.05.014):
# Numbers after ± are expanded uncertainties.
# Assay: activity coefficient (dimensionless); of the first substance listed, at infinite dilution; xn = mol fraction of the nth substance listed
# Conditions: 100 kPa, Liquid, Chromatography, x1 = 0
Compound,activity coefficient (308.15 K),activity coefficient (318.15 K),activity coefficient (328.15 K),activity coefficient (338.15 K),activity coefficient (348.15 K),activity coefficient (358.15 K),activity coefficient (368.15 K),activity coefficient (378.15 K),activity coefficient (388.15 K),activity coefficient (398.15 K),activity coefficient (408.15 K)
CC(C)OC(C)C [diisopropyl ether] + CC(O)C(=O)[O-].CC[N+]1(C)CCCC1,55.3 ± 4.8,53.6 ± 4.6,52 ± 4.5,50.1 ± 4.3,48.6 ± 4.2,47.2 ± 4.1,45.9 ± 4,–,–,–,–
C1CCCCCC1 [cycloheptane] + CC(O)C(=O)[O-].CC[N+]1(C)CCCC1,69.7 ± 6,64.6 ± 5.6,60.3 ± 5.2,57 ± 4.9,53.8 ± 4.7,51 ± 4.4,47.8 ± 4.1,–,–,–,–
CO [methanol] + CC(O)C(=O)[O-].CC[N+]1(C)CCCC1,–,–,–,–,–,0.086 ± 0.03,0.095 ± 0.03,0.105 ± 0.03,0.116 ± 0.03,0.125 ± 0.03,0.137 ± 0.029
"Cc1ccc(C)cc1 [1,4-dimethylbenzene] + CC(O)C(=O)[O-].CC[N+]1(C)CCCC1",–,10 ± 0.9,10.1 ± 0.9,10.3 ± 0.9,10.4 ± 0.9,10.5 ± 0.9,10.7 ± 0.9,–,–,–,–
CCCC(=O)CC [3-hexanone] + CC(O)C(=O)[O-].CC[N+]1(C)CCCC1,–,8.06 ± 0.7,8.06 ± 0.7,8.12 ± 0.7,8.19 ± 0.71,8.25 ± 0.71,8.4 ± 0.73,–,–,–,–
CCCCCCCC [octane] + CC(O)C(=O)[O-].CC[N+]1(C)CCCC1,334 ± 29,307 ± 27,275 ± 24,254 ± 22,236 ± 20,217 ± 19,200 ± 17,–,–,–,–
C=CCCCCCC [oct-1-ene] + CC(O)C(=O)[O-].CC[N+]1(C)CCCC1,145 ± 13,136 ± 12,127 ± 11,120 ± 10,114 ± 10,108 ± 9,103 ± 9,–,–,–,–
C=CCCCCC [1-heptene] + CC(O)C(=O)[O-].CC[N+]1(C)CCCC1,88.8 ± 7.7,83.8 ± 7.3,78.7 ± 6.8,75.2 ± 6.5,71.9 ± 6.2,68.8 ± 6,66.4 ± 5.7,–,–,–,–
CCCC(=O)OC [methyl butanoate] + CC(O)C(=O)[O-].CC[N+]1(C)CCCC1,–,7.46 ± 0.64,7.56 ± 0.65,7.6 ± 0.66,7.74 ± 0.67,7.84 ± 0.68,8.01 ± 0.69,8.08 ± 0.7,–,–,–
CCCCCC [hexane] + CC(O)C(=O)[O-].CC[N+]1(C)CCCC1,135 ± 12,125 ± 11,114 ± 10,107 ± 9,99.9 ± 8.7,94.6 ± 8.2,88.7 ± 7.7,–,–,–,–
CCO [ethanol] + CC(O)C(=O)[O-].CC[N+]1(C)CCCC1,–,–,–,–,–,0.174 ± 0.03,0.187 ± 0.03,0.201 ± 0.031,0.219 ± 0.031,0.234 ± 0.032,0.255 ± 0.033
CCC[N+](=O)[O-] [1-nitropropane] + CC(O)C(=O)[O-].CC[N+]1(C)CCCC1,–,1.75 ± 0.15,1.8 ± 0.15,1.86 ± 0.16,1.92 ± 0.16,1.98 ± 0.17,2.06 ± 0.18,–,–,–,–
CCCCC(C)=O [2-hexanone] + CC(O)C(=O)[O-].CC[N+]1(C)CCCC1,–,7.09 ± 0.61,7.16 ± 0.62,7.22 ± 0.62,7.31 ± 0.63,7.39 ± 0.64,7.54 ± 0.65,–,–,–,–
C#CCCCC [1-hexyne] + CC(O)C(=O)[O-].CC[N+]1(C)CCCC1,5.14 ± 0.44,5.48 ± 0.47,5.79 ± 0.5,6.21 ± 0.54,6.54 ± 0.56,6.92 ± 0.6,7.24 ± 0.62,–,–,–,–
CC(C)=O [acetone] + CC(O)C(=O)[O-].CC[N+]1(C)CCCC1,–,1.93 ± 0.17,1.97 ± 0.17,2.03 ± 0.18,2.08 ± 0.18,2.14 ± 0.18,2.21 ± 0.19,–,–,–,–
CCCOCCC [dipropyl ether] + CC(O)C(=O)[O-].CC[N+]1(C)CCCC1,52.1 ± 4.5,50.3 ± 4.4,48.2 ± 4.2,46.2 ± 4,44.8 ± 3.9,43.2 ± 3.7,41.9 ± 3.6,–,–,–,–
CCCCCCCCCC [decane] + CC(O)C(=O)[O-].CC[N+]1(C)CCCC1,787 ± 68,725 ± 63,651 ± 57,597 ± 52,542 ± 47,496 ± 43,456 ± 40,–,–,–,–
c1ccsc1 [thiophene] + CC(O)C(=O)[O-].CC[N+]1(C)CCCC1,–,1.29 ± 0.11,1.38 ± 0.12,1.47 ± 0.12,1.56 ± 0.13,1.64 ± 0.14,1.75 ± 0.15,–,–,–,–
C#CCCCCCC [1-octyne] + CC(O)C(=O)[O-].CC[N+]1(C)CCCC1,13.6 ± 1.2,14.2 ± 1.2,14.7 ± 1.3,15.5 ± 1.3,16 ± 1.4,16.6 ± 1.4,17.1 ± 1.5,–,–,–,–
CCc1ccccc1 [ethylbenzene] + CC(O)C(=O)[O-].CC[N+]1(C)CCCC1,–,9.27 ± 0.8,9.36 ± 0.81,9.45 ± 0.82,9.58 ± 0.83,9.68 ± 0.84,9.86 ± 0.85,–,–,–,–
